Source: patent US8334371B2, “Lactic acid bacteria-derived double-stranded RNA” (Kikkoman Corporation, priority 2007, dated 2012)

B1: DSR2: synthetic double-stranded RNA, 119 mer, SEQ ID NO. 6, made by in vitro transcription and annealing (nucleic acid, listed as Tetragenococcus halophilus)
chain: AAAAAATTACCTTTTTCTATTCGTGAGAAAATTTCTCAAGCCGACAAGTATCATAAAAAATTTGCTTTTGAACACTTTTTGAAGGTGTTTCTCTATGGCATCGATCATGAGTGTGAAAG
modifications: RNA, all phosphodiester, T or U not given here; further chemistry not fully specified
notes: 6, made by in vitro transcription and annealing

System: bone marrow-derived dendritic cells
Test: Promotion of interferon β production from bone marrow-derived dendritic cells (PBL interferon β assay kit)
Assay type: cell-based, mouse
Procedure: In addition, measurement was also carried out on interferon β, which has been reported to be involved in the production of interleukin 12. Activity promoting production of interferon β from bone marrow-derived dendritic cells (after culturing for 6 hours using an interferon β assay kit (PBL)) was as shown in FIG. 8.
At this time, interferon […], which has been reported to be involved in interleukin 12 production, was also measured.
(§1) Bone marrow-derived dendritic cells were prepared in the same manner as Example 2. Synthetic RNA was added to the bone marrow-derived dendritic cells followed by co-culturing for 6 hours in a 5% CO2 incubator at 37° C. Interferon β production promoting activity was measured using an interferon β assay kit manufactured by PBL.
as §1, with “for 24” for “for 6”, “using the” for “using an”

| Molecule | interferon β production promoting activity (culturing for 6 hours, concentration response) | interferon β production promoting activity (dendritic cells from TLR3-knockout mice vs wild type, 6 hours) | interferon β production from bone marrow-derived dendritic cells (co-culturing for 24 hours) |
| --- | --- | --- | --- |
| DSR1: synthetic double-stranded RNA, 46 mer, SEQ ID NO. 5, sequence cloned from Th221 double-stranded RNA fraction (AAATTTTCAAAAACCTGTTTTGCTTCTTCTAAAAATCCAATTGAAA; listed as DNA, chemistry not given here; listed as Tetragenococcus halophilus) | increased dependent on the concentration | decreased |  |
| B1 |  |  | indicated to be produced |
